Data as given in patent US20230143604A1, “QW DOSING OF GIP RECEPTOR AGONIST PEPTIDE COMPOUNDS AND USES THEREOF” (TAKEDA PHARMACEUTICAL COMPANY LIMITED, priority 2020, published 2023).
Starred links: 1 amine or outer side, 2 acyl side, 3 side chain; linkers in the order of their positions; H or OH if unused. Non-standard residues stand in square brackets, D forms with d. Residues, ends and D or L forms follow the SMILES beside them. Groups on a side chain read outwards from the residue. *: point of attachment. C17 diacid = O=C(O)CCCCCCCCCCCCCCCC(=O)*; γGlu = O=C(O)[C@H](CCC(=O)[*:2])N[*:1]; NMeY = CN[C@@H](Cc1ccc(O)cc1)C(=O)O; AEEA = NCCOCCOCC(=O)O; Aib = CC(C)(N)C(=O)O

What was measured:
[1] = Human plasma protein binding (PPB); assay type: in vitro ADME; details: for fraction unbound: both sexes, pH 7.4, human plasma, 1000 nmol/L peptide, ultracentrifugation, read-out: Human PPB (FUplasma)
Protocol: Stock solutions: (1000 μM) of the peptides are prepared in DMSO.
Human plasma (mixed gender; containing K2-EDTA as anti-coagulant; pre-adjusted to pH 7.4—NB alternative species may be used) is spiked individually with each test peptide (1000 nmol/L), sampled for analysis and then incubated (n=4) at 37° C. in a water bath for 30 minutes. Following the incubation period, the plasma is sampled for analysis, then transferred to ultracentrifugation tubes and centrifuged (n=3) at […] and 4° C. for 3 hours, after which the supernatant is sampled for analysis. An additional aliquot of the supernatant is taken at the end of the centrifugation period to determine the total protein concentration. An aliquot of the incubated plasma will be stored at 4° C. for 3 hours and then sampled for analysis. At the point of sampling, all samples are matrix-matched, treated with ice-cold acetonitrile/methanol (4:1 (vfv)) containing internal standard, centrifuged al 2000 g and 4° C. for 10 minutes and stored prior to LC-MS/MS analysis. An appropriate positive control compound control will be incubated and centrifuged in parallel; control plasma is also centrifuged to generate samples for matrix-matching. Fraction unbound in plasma (Fuplasma) values is determined by comparison of the analyte response in plasma to the analyte response in the supernatant, determined via peak area response ratios.
The samples are analyzed by LC-MS/MS using a 6500 (or equivalent) triple quadrupole mass spectrometer (AB Sciex) coupled to an appropriate Liquid Chromatography (LC) system. Protein binding and stability values are determined via peak area ratios using multiple reaction monitoring (MRM) parameters following compound optimisation. Multiple reaction monitoring (MRM) is a highly sensitive method of targeted mass spectrometry (MS) that can be used to selectively detect and quantify peptides based on the screening of specified precursor peptide-to-fragment ion transitions.

[2] = Dog plasma protein binding (PPB); assay type: in vitro ADME; details: pH 7.4; fraction unbound; dog serum; read-out: Dog PPB (FUplasma)
Source text: Dog PPB values presented below are obtained essentially as described for Human PPB samples, with the difference being that dog serum is used instead of human serum. Table 10 is provided with the values of (Fu,plasma) as fraction unbound expressed as a percentage compared to the percent bound. i.e. if the value is 0.0123, then the fraction unbound is […], which is 1.23% of the peptide is unbound and 98.77% is bound in plasma. Methods and analysis for performing the dog PPB protocol and results are the same as noted herein as for the Human PPB protocol and analysis.

physchem = assay: physchem
Method in brief: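 Solubility at pH 7.4 determined by stepwise addition of 200 mM phosphate buffer in 100 μL increments to 3 mg peptide, mixing briefly each time, until no insoluble material remained, then measured by liquid chromatography.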

Row | Compound | fraction unbound [1] | fraction unbound [2] | solubility (physchem; pH 7.4) | solubility (physchem; pH 7.4, aqueous buffer) | free unbound peptide in human plasma (in words) ([1]; judged for once per week (QW) dosing)
1 | CC[C@H](C)[C@H](NC(=O)[C@H](CO)NC(=O)[C@H](Cc1ccc(O)cc1)NC(=O)[C@H](CC(=O)O)NC(=O)[C@H](CO)NC(=O)[C@@H](NC(=O)[C@H](Cc1ccccc1)NC(=O)[C@@H](NC(=O)CNC(=O)[C@H](CCC(=O)O)NC(=O)C(C)(C)NC(=O)[C@H](Cc1ccc(O)cc1)NC)[C@@H](C)O)[C@@H](C)CC)C(=O)N[C@@H](C)C(=O)N[C@@H](CC(C)C)C(=O)N[C@@H](CC(=O)O)C(=O)N[C@@H](CCCNC(=N)N)C(=O)NC(C)(C)C(=O)N[C@@H](C)C(=O)N[C@@H](CCC(N)=O)C(=O)NC(C)(C)C(=O)N[C@@H](CCCCNC(=O)COCCOCCNC(=O)COCCOCCNC(=O)CC[C@H](NC(=O)CC[C@H](NC(=O)CCCCCCCCCCCCCCCC(=O)O)C(=O)O)C(=O)O)C(=O)N[C@@H](Cc1ccccc1)C(=O)N[C@H](C(=O)N[C@@H](CC(N)=O)C(=O)N[C@@H](Cc1c[nH]c2ccccc12)C(=O)N[C@@H](CC(C)C)C(=O)N[C@@H](CC(C)C)C(=O)N[C@@H](C)C(=O)N[C@@H](CCC(N)=O)C(=O)N[C@@H](CCCNC(=N)N)C(=O)NCC(=O)O)C(C)C [Compound 36] (H-[NMeY][Aib]EGTFISDYSIALDR[Aib]AQ[Aib]K([AEEA-AEEA-γGlu-γGlu-C17 diacid])FVNWLLAQRG-OH) | < 0.002 | 0.0034 | ≥ 15 mg/mL | ≥ 60 mg/mL | 
2 | CC[C@H](C)[C@H](NC(=O)[C@H](CO)NC(=O)[C@H](Cc1ccc(O)cc1)NC(=O)[C@H](CC(=O)O)NC(=O)[C@H](CO)NC(=O)[C@@H](NC(=O)[C@H](Cc1ccccc1)NC(=O)[C@@H](NC(=O)CNC(=O)[C@H](CCC(=O)O)NC(=O)C(C)(C)NC(=O)[C@H](Cc1ccc(O)cc1)NC)[C@@H](C)O)[C@@H](C)CC)C(=O)N[C@@H](C)C(=O)N[C@@H](CC(C)C)C(=O)N[C@@H](CC(=O)O)C(=O)N[C@@H](CCCNC(=N)N)C(=O)NC(C)(C)C(=O)N[C@@H](C)C(=O)N[C@@H](CCC(N)=O)C(=O)NC(C)(C)C(=O)N[C@@H](CCCCNC(=O)COCCOCCNC(=O)COCCOCCNC(=O)CC[C@H](NC(=O)CC[C@H](NC(=O)CCCCCCCCCCCCCCCC(=O)O)C(=O)O)C(=O)O)C(=O)N[C@@H](Cc1ccccc1)C(=O)N[C@H](C(=O)N[C@@H](CC(N)=O)C(=O)N[C@@H](Cc1c[nH]c2ccccc12)C(=O)N[C@@H](CC(C)C)C(=O)N[C@@H](CC(C)C)C(=O)N[C@@H](C)C(=O)N[C@@H](CCC(N)=O)C(=O)N[C@@H](CCCNC(=N)N)C(N)=O)C(C)C [Compound 8] (H-[NMeY][Aib]EGTFISDYSIALDR[Aib]AQ[Aib]K([AEEA-AEEA-γGlu-γGlu-C17 diacid])FVNWLLAQR-NH2) | 0.0009 | 0.0016 |  | ≥ 15 mg/mL | optimum free unbound peptide
